Results published in US20230085307A1, “PYRIDAZINONE COMPOUND AND HERBICIDE” (NISSAN CHEMICAL CORPORATION, priority 2019, published 2023).

Columns and labels:
barnyard grass [1] = assay: Test Example 3: herbicidal effect by foliage application, Wagner pot (Table 18, symbol H); assay type: in vivo, barnyard grass (Echinochloa crus-galli); conditions: 320 g/ha
Procedure, shortened: (§1)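 Plants were sown in alluvial soil held under 0.1–0.5 cm standing water and grown 14 days in a greenhouse at 25–30 °C. An emulsifiable formulation, water-diluted to the set dose, was then sprayed onto the foliage, and effects were scored three weeks later using previously defined criteria.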

Chinese sprangletop = assay: Test Example 3: herbicidal effect by foliage application, Wagner pot (Table 18, symbol D); assay type: in vivo, chinese sprangletop (Leptochloa chinensis); conditions: 320 g/ha
Procedure, shortened: as §1

rice flat sedge = assay: Test Example 3: herbicidal effect by foliage application, Wagner pot (Table 18, symbol E); assay type: in vivo, rice flat sedge (Cyperus iria); conditions: 320 g/ha
Procedure, shortened: as §1

southern crabgrass [2] = assay: Test Example 4: herbicidal effect by soil treatment (Table 19, symbol F); assay type: in vivo, southern crabgrass (Digitaria ciliaris); conditions: amount of applied herbicide 320 g/ha
Procedure, shortened: (§2)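 Seeds were sown in sterilized diluvial soil and covered with about 1.5 cm of soil. An emulsion formulation diluted with water to a predetermined herbicide amount was sprayed evenly onto the soil surface. Plants grew in a greenhouse at 25° C. to 30° C., and the effect was scored three weeks after application using criteria from an earlier test.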

green foxtail [3] = assay: Test Example 4: herbicidal effect by soil treatment (Table 19, symbol G); assay type: in vivo, green foxtail (Setaria viridis); conditions: amount of applied herbicide 320 g/ha
Procedure, shortened: as §2

barnyard grass [4] = assay: Test Example 4: herbicidal effect by soil treatment (Table 19, symbol H); assay type: in vivo, barnyard grass (Echinochloa crus-galli); conditions: amount of applied herbicide 320 g/ha
Procedure, shortened: as §2

wild oat [5] = assay: Test Example 4: herbicidal effect by soil treatment (Table 19, symbol I); assay type: in vivo, wild oat (Avena fatua); conditions: amount of applied herbicide 320 g/ha
Procedure, shortened: as §2

blackgrass [6] = assay: Test Example 4: herbicidal effect by soil treatment (Table 19, symbol J); assay type: in vivo, blackgrass (Alopecurus myosuroides); conditions: amount of applied herbicide 320 g/ha
Procedure, shortened: as §2

Italian ryegrass [7] = assay: Test Example 4: herbicidal effect by soil treatment (Table 19, symbol K); assay type: in vivo, Italian ryegrass (Lolium multiflorum); conditions: amount of applied herbicide 320 g/ha
Procedure, shortened: as §2

windgrass [8] = assay: Test Example 4: herbicidal effect by soil treatment (Table 19, symbol L); assay type: in vivo, windgrass (Apera spica-venti); conditions: amount of applied herbicide 320 g/ha
Procedure, shortened: as §2

velvetleaf [9] = assay: Test Example 4: herbicidal effect by soil treatment (Table 19, symbol M); assay type: in vivo, velvetleaf (Abutilon theophrasti); conditions: amount of applied herbicide 320 g/ha
Procedure, shortened: as §2

redroot pigweed [10] = assay: Test Example 4: herbicidal effect by soil treatment (Table 19, symbol N); assay type: in vivo, redroot pigweed (Amaranthus retroflexus); conditions: amount of applied herbicide 320 g/ha
Procedure, shortened: as §2

lambsquarters [11] = assay: Test Example 4: herbicidal effect by soil treatment (Table 19, symbol O); assay type: in vivo, lambsquarters (Chenopodium album); conditions: amount of applied herbicide 320 g/ha
Procedure, shortened: as §2

chickweed [12] = assay: Test Example 4: herbicidal effect by soil treatment (Table 19, symbol P); assay type: in vivo, common chickweed (Stellaria media); conditions: amount of applied herbicide 320 g/ha
Procedure, shortened: as §2

false cleavers [13] = assay: Test Example 4: herbicidal effect by soil treatment (Table 19, symbol Q); assay type: in vivo, false cleavers (Galium spurium); conditions: amount of applied herbicide 320 g/ha
Procedure, shortened: as §2

persian speedwell [14] = assay: Test Example 4: herbicidal effect by soil treatment (Table 19, symbol R); assay type: in vivo, Persian speedwell (Veronica persica); conditions: amount of applied herbicide 320 g/ha
Procedure, shortened: as §2

southern crabgrass [15] = assay: Test Example 5: herbicidal effect by foliage application, plastic box (Table 20, symbol F); assay type: in vivo, southern crabgrass (Digitaria ciliaris); conditions: foliage application, 320 g/ha, three weeks after application
Procedure, shortened: (§3)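 Plants sown in sterilized diluvial soil and grown 14 days in a greenhouse at 25° C to 30° C, then sprayed on the foliage with the compound's emulsion diluted in water to a predetermined herbicide amount. Injury to weeds and crops scored three weeks after application on a visual rating scale.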

green foxtail [16] = assay: Test Example 5: herbicidal effect by foliage application, plastic box (Table 20, symbol G); assay type: in vivo, green foxtail (Setaria viridis); conditions: foliage application, 320 g/ha, three weeks after application
Procedure, shortened: as §3

barnyard grass [17] = assay: Test Example 5: herbicidal effect by foliage application, plastic box (Table 20, symbol H); assay type: in vivo, barnyard grass (Echinochloa crus-galli); conditions: foliage application, 320 g/ha, three weeks after application
Procedure, shortened: as §3

wild oat [18] = assay: Test Example 5: herbicidal effect by foliage application, plastic box (Table 20, symbol I); assay type: in vivo, wild oat (Avena fatua); conditions: foliage application, 320 g/ha, three weeks after application
Procedure, shortened: as §3

blackgrass [19] = assay: Test Example 5: herbicidal effect by foliage application, plastic box (Table 20, symbol J); assay type: in vivo, blackgrass (Alopecurus myosuroides); conditions: foliage application, 320 g/ha, three weeks after application
Procedure, shortened: as §3

Italian ryegrass [20] = assay: Test Example 5: herbicidal effect by foliage application, plastic box (Table 20, symbol K); assay type: in vivo, Italian ryegrass (Lolium multiflorum); conditions: foliage application, 320 g/ha, three weeks after application
Procedure, shortened: as §3

windgrass [21] = assay: Test Example 5: herbicidal effect by foliage application, plastic box (Table 20, symbol L); assay type: in vivo, windgrass (Apera spica-venti); conditions: foliage application, 320 g/ha, three weeks after application
Procedure, shortened: as §3

velvetleaf [22] = assay: Test Example 5: herbicidal effect by foliage application, plastic box (Table 20, symbol M); assay type: in vivo, velvetleaf (Abutilon theophrasti); conditions: foliage application, 320 g/ha, three weeks after application
Procedure, shortened: as §3

redroot pigweed [23] = assay: Test Example 5: herbicidal effect by foliage application, plastic box (Table 20, symbol N); assay type: in vivo, redroot pigweed (Amaranthus retroflexus); conditions: foliage application, 320 g/ha, three weeks after application
Procedure, shortened: as §3

lambsquarters [24] = assay: Test Example 5: herbicidal effect by foliage application, plastic box (Table 20, symbol O); assay type: in vivo, lambsquarters (Chenopodium album); conditions: foliage application, 320 g/ha, three weeks after application
Procedure, shortened: as §3

chickweed [25] = assay: Test Example 5: herbicidal effect by foliage application, plastic box (Table 20, symbol P); assay type: in vivo, common chickweed (Stellaria media); conditions: foliage application, 320 g/ha, three weeks after application
Procedure, shortened: as §3

false cleavers [26] = assay: Test Example 5: herbicidal effect by foliage application, plastic box (Table 20, symbol Q); assay type: in vivo, false cleavers (Galium spurium); conditions: foliage application, 320 g/ha, three weeks after application
Procedure, shortened: as §3

persian speedwell [27] = assay: Test Example 5: herbicidal effect by foliage application, plastic box (Table 20, symbol R); assay type: in vivo, Persian speedwell (Veronica persica); conditions: foliage application, 320 g/ha, three weeks after application
Procedure, shortened: as §3

Compound | herbicidal effect on H (barnyard grass), rating 0-5 (barnyard grass [1]) | herbicidal effect on D (Chinese sprangletop), rating 0-5 (Chinese sprangletop) | herbicidal effect on E (rice flat sedge), rating 0-5 (rice flat sedge) | herbicidal effect rating, F: southern crabgrass (southern crabgrass [2]) | herbicidal effect rating, G: green foxtail (green foxtail [3]) | herbicidal effect rating, H: barnyard grass (barnyard grass [4]) | herbicidal effect rating, I: wild oat (wild oat [5]) | herbicidal effect rating, J: blackgrass (blackgrass [6]) | herbicidal effect rating, K: Italian ryegrass (Italian ryegrass [7]) | herbicidal effect rating, L: windgrass (windgrass [8]) | herbicidal effect rating, M: velvetleaf (velvetleaf [9]) | herbicidal effect rating, N: redroot pigweed (redroot pigweed [10]) | herbicidal effect rating, O: lambsquarters (lambsquarters [11]) | herbicidal effect rating, P: chickweed (chickweed [12]) | herbicidal effect rating, Q: false cleavers (false cleavers [13]) | herbicidal effect rating, R: persian speedwell (persian speedwell [14]) | herbicidal effect grade, F: southern crabgrass (southern crabgrass [15]) | herbicidal effect grade, G: green foxtail (green foxtail [16]) | herbicidal effect grade, H: barnyard grass (barnyard grass [17]) | herbicidal effect grade, I: wild oat (wild oat [18]) | other results
COc1cccc(-c2sc3ccccc3c2-c2c(O)c(C)nn(C)c2=O)c1F [1-048] | 4 (Herbicidal rate of 70% or more and less than 90%) | 5 (Herbicidal rate of 90% or more (almost completely withered)) | 4 (Herbicidal rate of 70% or more and less than 90%) | 0 (Herbicidal rate of 5% or less (almost no effect)) | 0 (Herbicidal rate of 5% or less (almost no effect)) | 0 (Herbicidal rate of 5% or less (almost no effect)) | 0 (Herbicidal rate of 5% or less (almost no effect)) | 0 (Herbicidal rate of 5% or less (almost no effect)) | 0 (Herbicidal rate of 5% or less (almost no effect)) | 0 (Herbicidal rate of 5% or less (almost no effect)) | 0 (Herbicidal rate of 5% or less (almost no effect)) | 0 (Herbicidal rate of 5% or less (almost no effect)) | 0 (Herbicidal rate of 5% or less (almost no effect)) | 3 (Herbicidal rate of 40% or more and less than 70%) | 0 (Herbicidal rate of 5% or less (almost no effect)) | 1 (Herbicidal rate of 5% or more and less than 20%) | 0 (Herbicidal rate of 5% or less (almost no effect)) | 0 (Herbicidal rate of 5% or less (almost no effect)) | 0 (Herbicidal rate of 5% or less (almost no effect)) | 0 (Herbicidal rate of 5% or less (almost no effect)) | herbicidal effect grade, J: blackgrass (blackgrass [19]): 0 (Herbicidal rate of 5% or less (almost no effect)); herbicidal effect grade, K: Italian ryegrass (Italian ryegrass [20]): 0 (Herbicidal rate of 5% or less (almost no effect)); herbicidal effect grade, L: windgrass (windgrass [21]): 0 (Herbicidal rate of 5% or less (almost no effect)); herbicidal effect grade, M: velvetleaf (velvetleaf [22]): 0 (Herbicidal rate of 5% or less (almost no effect)); herbicidal effect grade, N: redroot pigweed (redroot pigweed [23]): 0 (Herbicidal rate of 5% or less (almost no effect)); herbicidal effect grade, O: lambsquarters (lambsquarters [24]): 0 (Herbicidal rate of 5% or less (almost no effect)); herbicidal effect grade, P: chickweed (chickweed [25]): 5 (Herbicidal rate of 90% or more (almost completely withered)); herbicidal effect grade, Q: false cleavers (false cleavers [26]): 0 (Herbicidal rate of 5% or less (almost no effect)); herbicidal effect grade, R: persian speedwell (persian speedwell [27]): 4 (Herbicidal rate of 70% or more and less than 90%)
COc1cc(Cl)ccc1-c1sc2ccccc2c1-c1c(O)c(C)nn(C)c1=O [1-060] | 4 (Herbicidal rate of 70% or more and less than 90%) | 3 (Herbicidal rate of 40% or more and less than 70%) | 4 (Herbicidal rate of 70% or more and less than 90%) | 0 (Herbicidal rate of 5% or less (almost no effect)) | 0 (Herbicidal rate of 5% or less (almost no effect)) | 0 (Herbicidal rate of 5% or less (almost no effect)) | 0 (Herbicidal rate of 5% or less (almost no effect)) | 0 (Herbicidal rate of 5% or less (almost no effect)) | 0 (Herbicidal rate of 5% or less (almost no effect)) | 1 (Herbicidal rate of 5% or more and less than 20%) | 0 (Herbicidal rate of 5% or less (almost no effect)) | 0 (Herbicidal rate of 5% or less (almost no effect)) | 0 (Herbicidal rate of 5% or less (almost no effect)) | 4 (Herbicidal rate of 70% or more and less than 90%) | 3 (Herbicidal rate of 40% or more and less than 70%) | 5 (Herbicidal rate of 90% or more (almost completely withered)) | 3 (Herbicidal rate of 40% or more and less than 70%) | 3 (Herbicidal rate of 40% or more and less than 70%) | 3 (Herbicidal rate of 40% or more and less than 70%) | 3 (Herbicidal rate of 40% or more and less than 70%) | herbicidal effect grade, J: blackgrass (blackgrass [19]): 3 (Herbicidal rate of 40% or more and less than 70%); herbicidal effect grade, K: Italian ryegrass (Italian ryegrass [20]): 3 (Herbicidal rate of 40% or more and less than 70%); herbicidal effect grade, L: windgrass (windgrass [21]): 5 (Herbicidal rate of 90% or more (almost completely withered)); herbicidal effect grade, M: velvetleaf (velvetleaf [22]): 3 (Herbicidal rate of 40% or more and less than 70%); herbicidal effect grade, N: redroot pigweed (redroot pigweed [23]): 3 (Herbicidal rate of 40% or more and less than 70%); herbicidal effect grade, O: lambsquarters (lambsquarters [24]): 5 (Herbicidal rate of 90% or more (almost completely withered)); herbicidal effect grade, P: chickweed (chickweed [25]): 5 (Herbicidal rate of 90% or more (almost completely withered)); herbicidal effect grade, Q: false cleavers (false cleavers [26]): 5 (Herbicidal rate of 90% or more (almost completely withered)); herbicidal effect grade, R: persian speedwell (persian speedwell [27]): 5 (Herbicidal rate of 90% or more (almost completely withered))
